Series [1] has as its target T1, RyR2 (Mus musculus, UniProt E9Q401).
T1 construct: spontaneous openings of intracellular RyR2; endogenous in cells; host or cells: ventricular cardiomyocytes isolated from Casq2-/- mice (A1, A6) or wild-type mice (A5)
The series can be described thus: Ca2+ sparks in permeabilized wild-type myocytes. It counts as cell-based. Conditions: 3 μM ent-1, 25 μM flecainide, 50 μM tetracaine. As to the method:
(§1) (FIG. 2A) Representative confocal line scans of Ca2+ sparks in the absence (DMSO) or presence of 25 μM nat-1 or ent-1 in permeabilized Casq2−/− cardiomyocytes. (FIG. 2B) Ca2+ spark frequency in Casq2−/− cells treated with 25 μM nat-1, 7, 8, and their respective enantiomers. (FIG. 2C) Comparison of [3H]ryanodine binding to SR isolated from porcine longissimus dorsi (RyR1) or cardiac ventricle (RyR2) in the presence of 50 μM nat-1, ent-1, or tetracaine (tet). (FIG. 2D) Dose response curves for ent-1 and tet inhibition of [3H]ryanodine binding to RyR2. (FIG. 2E) Representative Ca2+ sparks from permeabilized wild-type cardiomyocytes treated with 3 μM ent-1, 25 μM flecainide, or 50 μM tetracaine. Graph indicates amplitude of Ca2+ release of the selected representative sparks over time. (FIG. 2F) Percent change in spark frequency, amplitude, mass, leak, and SR Ca2+ content relative to vehicle (DMSO), obtained from wild-type myocytes. SR Ca2+ content was measured as the Ca2+ transient amplitude elicited by application of 10 mM caffeine (n≥5 cells per group). Data are presented as mean±SEM. N≥30 cells per group for A, B, and F. N=4 replicates for each concentration tested in C and D. *p<0.05 vs DMSO, **p<0.01 vs DMSO, ***p<0.001 vs DMSO by 1-way ANOVA with Tukey's post-hoc test (B) or t-test (C, D, and F).
(§2) Skeletal and cardiac SR were incubated with 50 μM nat-1, ent-1, and tetracaine for three hours. Nat-1 increased RyR1 activity, but had no effect on RyR2 (FIG. 2C). Conversely, ent-1 inhibited RyR2, but had no effect on RyR1. The well-established RyR inhibitor, tetracaine, inhibited both isoforms. Ent-1 was selected to generate full dose response curves for both cardiac and skeletal SR. Ent-1 inhibited RyR2 in a concentration-dependent manner with an apparent IC50 of approximately 0.1 μM and maximal inhibition of approximately 20% (FIG. 2D), but had no effect on RyR1 up to 50 μM (Figure S2). […] To further characterize the Ca^2+ release inhibition by ent-1, the present inventors applied a lower concentration (3 μM) to wild type mouse myocytes and compared results to two other classical Ca^2+ release inhibitors, flecainide and tetracaine (representative line scans and sparks are shown in FIG. 2E).

The subject of the next series is spontaneous Ca^2+ waves. Conditions: 10 μM; cited from earlier work.
Series [2] concerns the target T1, RyR2. The series can be described thus: Ca2+ sparks in saponin-permeabilized Casq2-/- ventricular myocytes. The class given is cell-based. To be noted: 25 μM, permeabilized Casq2-/- cardiomyocytes, vs DMSO. As to the method: (FIG. 2A) Representative confocal line scans of Ca2+ sparks in the absence (DMSO) or presence of 25 μM nat-1 or ent-1 in permeabilized Casq2−/− cardiomyocytes. (FIG. 2B) Ca2+ spark frequency in Casq2−/− cells treated with 25 μM nat-1, 7, 8, and their respective enantiomers. (FIG. 2C) Comparison of [3H]ryanodine binding to SR isolated from porcine longissimus dorsi (RyR1) or cardiac ventricle (RyR2) in the presence of 50 μM nat-1, ent-1, or tetracaine (tet). (FIG. 2D) Dose response curves for ent-1 and tet inhibition of [3H]ryanodine binding to RyR2. (FIG. 2E) Representative Ca2+ sparks from permeabilized wild-type cardiomyocytes treated with 3 μM ent-1, 25 μM flecainide, or 50 μM tetracaine. […] SR Ca2+ content was measured as the Ca2+ transient amplitude elicited by application of 10 mM caffeine (n≥5 cells per group). […]
Ventricular mouse myocytes were isolated, permeabilized with saponin to enable equivalent access of the compounds to the SR membrane, and incubated with DMSO or 25 μM nat- and ent-1, 7, 8. RyR2 activity was measured in the form of Ca^2+ sparks, which are elementary Ca^2+ release events generated by spontaneous openings of intracellular RyR2 Ca^2+ release channels. […] To confirm that [Ca^2+]free was not altered by any of the compounds, Fluo-4 fluorescence was measured under spark assay conditions. […]

Series [3] in a line: [Ca2+]free by Fluo-4 fluorescence under spark assay conditions. Conditions: 25 μM, 10 minutes in internal spark solution. It counts as physicochemical. Here is the method:
Ventricular mouse myocytes were isolated, permeabilized with saponin to enable equivalent access of the compounds to the SR membrane, and incubated with DMSO or 25 μM nat- and ent-1, 7, 8. RyR2 activity was measured in the form of Ca^2+ sparks, which are elementary Ca^2+ release events generated by spontaneous openings of intracellular RyR2 Ca^2+ release channels. […] Cardiac SR Ca^2+ release is sensitive to the Ca^2+ concentration present at the cytosolic face of RyR2. To confirm that [Ca^2+]free was not altered by any of the compounds, Fluo-4 fluorescence was measured under spark assay conditions. The internal spark solution was incubated with DMSO or 25 μM nat-1, 7, 8, and their respective enantiomers for 10 minutes and [Ca^2+]free was calculated from a set of Ca^2+ standards.

The target of a further series is T2, RyR1 (Sus scrofa, UniProt P16960).
T2 construct: SR isolated from porcine longissimus dorsi (RyR1); from tissue; host or cells: porcine longissimus dorsi sarcoplasmic reticulum
The series can be described thus: [3H]ryanodine binding to skeletal muscle SR. Details: species or system porcine. Conditions: 50 μM, three hours. As to the method:
as §1, with “F). […]” for “F).”

In series [4] the target is T3, RyR2 (Sus scrofa, UniProt A0A5G2R1W3).
T3 construct: cardiac ventricle (RyR2); from tissue; host or cells: porcine cardiac ventricle sarcoplasmic reticulum
In words: [3H]ryanodine binding to cardiac SR. Set-up: species or system porcine. Conditions: for [3H]ryanodine binding (RyR2 activity): 50 μM, three hours. Here is the method:
as §1, §2

In another series the test system is insect RyR. To be noted: read-out: IC50, binding insect RyR; cited from earlier work.
The subject of a further series is Casq2^−/− mice. In words: Catecholamine-induced ventricular arrhythmia, ECG in Casq2-/- mice. It counts as in vivo, mouse. Conditions: 30 mg/kg i.p. Here is the method:
(FIG. 3A) Isolated cardiomyocytes were field stimulated at 3 Hz for 20 seconds followed by 40 seconds recording of SCR events (†). Application of 10 mM caffeine (caff) was used to measure SR Ca2+ content. (FIG. 3B) SCR frequency following cessation of pacing. N=63, 27, 31, 63, 30, and 27 cells for […] ent-1, respectively. **p<0.01, ***p<0.001 vs DMSO by t-test. (FIG. 3C) Representative heart rate traces in Casq2−/− mice treated with DMSO or ent-1. Isoproterenol (3.0 mg/kg i.p.) was injected at 0 s. Rhythm strips show arrhythmia features. Ectopic beats (†) produce a variable HR in the traces. (FIG. 3D) Quantification of catecholamine-induced ectopic beats by surface electrocardiogram in Casq2−/− mice injected intraperitoneally with 30 mg/kg (drug/body weight) nat-1 or ent-1 or DMSO of equivalent volume 30 minutes prior to recordings. ***p<0.001 vs DMSO or ###p<0.001 vs nat-1 by Mann-Whitney U-test. (FIG. 3E) Incidence of ventricular tachycardia (VT). p=0.0305 for ent-1 vs DMSO (*) or ent-1 vs nat-1 (#) by Fisher's exact test. N=22 mice per group (D and E). Data in B and D presented as mean±SEM.
To determine whether ent-1 inhibition of Ca^2+ release in cardiomyocytes in vitro translates into activity against ventricular arrhythmia in vivo, Casq2^−/− mice were injected intraperitoneally with 30 mg/kg nat-1, ent-1, or DMSO of equivalent volume. […]

T1 sequence (E9Q401 whole entry): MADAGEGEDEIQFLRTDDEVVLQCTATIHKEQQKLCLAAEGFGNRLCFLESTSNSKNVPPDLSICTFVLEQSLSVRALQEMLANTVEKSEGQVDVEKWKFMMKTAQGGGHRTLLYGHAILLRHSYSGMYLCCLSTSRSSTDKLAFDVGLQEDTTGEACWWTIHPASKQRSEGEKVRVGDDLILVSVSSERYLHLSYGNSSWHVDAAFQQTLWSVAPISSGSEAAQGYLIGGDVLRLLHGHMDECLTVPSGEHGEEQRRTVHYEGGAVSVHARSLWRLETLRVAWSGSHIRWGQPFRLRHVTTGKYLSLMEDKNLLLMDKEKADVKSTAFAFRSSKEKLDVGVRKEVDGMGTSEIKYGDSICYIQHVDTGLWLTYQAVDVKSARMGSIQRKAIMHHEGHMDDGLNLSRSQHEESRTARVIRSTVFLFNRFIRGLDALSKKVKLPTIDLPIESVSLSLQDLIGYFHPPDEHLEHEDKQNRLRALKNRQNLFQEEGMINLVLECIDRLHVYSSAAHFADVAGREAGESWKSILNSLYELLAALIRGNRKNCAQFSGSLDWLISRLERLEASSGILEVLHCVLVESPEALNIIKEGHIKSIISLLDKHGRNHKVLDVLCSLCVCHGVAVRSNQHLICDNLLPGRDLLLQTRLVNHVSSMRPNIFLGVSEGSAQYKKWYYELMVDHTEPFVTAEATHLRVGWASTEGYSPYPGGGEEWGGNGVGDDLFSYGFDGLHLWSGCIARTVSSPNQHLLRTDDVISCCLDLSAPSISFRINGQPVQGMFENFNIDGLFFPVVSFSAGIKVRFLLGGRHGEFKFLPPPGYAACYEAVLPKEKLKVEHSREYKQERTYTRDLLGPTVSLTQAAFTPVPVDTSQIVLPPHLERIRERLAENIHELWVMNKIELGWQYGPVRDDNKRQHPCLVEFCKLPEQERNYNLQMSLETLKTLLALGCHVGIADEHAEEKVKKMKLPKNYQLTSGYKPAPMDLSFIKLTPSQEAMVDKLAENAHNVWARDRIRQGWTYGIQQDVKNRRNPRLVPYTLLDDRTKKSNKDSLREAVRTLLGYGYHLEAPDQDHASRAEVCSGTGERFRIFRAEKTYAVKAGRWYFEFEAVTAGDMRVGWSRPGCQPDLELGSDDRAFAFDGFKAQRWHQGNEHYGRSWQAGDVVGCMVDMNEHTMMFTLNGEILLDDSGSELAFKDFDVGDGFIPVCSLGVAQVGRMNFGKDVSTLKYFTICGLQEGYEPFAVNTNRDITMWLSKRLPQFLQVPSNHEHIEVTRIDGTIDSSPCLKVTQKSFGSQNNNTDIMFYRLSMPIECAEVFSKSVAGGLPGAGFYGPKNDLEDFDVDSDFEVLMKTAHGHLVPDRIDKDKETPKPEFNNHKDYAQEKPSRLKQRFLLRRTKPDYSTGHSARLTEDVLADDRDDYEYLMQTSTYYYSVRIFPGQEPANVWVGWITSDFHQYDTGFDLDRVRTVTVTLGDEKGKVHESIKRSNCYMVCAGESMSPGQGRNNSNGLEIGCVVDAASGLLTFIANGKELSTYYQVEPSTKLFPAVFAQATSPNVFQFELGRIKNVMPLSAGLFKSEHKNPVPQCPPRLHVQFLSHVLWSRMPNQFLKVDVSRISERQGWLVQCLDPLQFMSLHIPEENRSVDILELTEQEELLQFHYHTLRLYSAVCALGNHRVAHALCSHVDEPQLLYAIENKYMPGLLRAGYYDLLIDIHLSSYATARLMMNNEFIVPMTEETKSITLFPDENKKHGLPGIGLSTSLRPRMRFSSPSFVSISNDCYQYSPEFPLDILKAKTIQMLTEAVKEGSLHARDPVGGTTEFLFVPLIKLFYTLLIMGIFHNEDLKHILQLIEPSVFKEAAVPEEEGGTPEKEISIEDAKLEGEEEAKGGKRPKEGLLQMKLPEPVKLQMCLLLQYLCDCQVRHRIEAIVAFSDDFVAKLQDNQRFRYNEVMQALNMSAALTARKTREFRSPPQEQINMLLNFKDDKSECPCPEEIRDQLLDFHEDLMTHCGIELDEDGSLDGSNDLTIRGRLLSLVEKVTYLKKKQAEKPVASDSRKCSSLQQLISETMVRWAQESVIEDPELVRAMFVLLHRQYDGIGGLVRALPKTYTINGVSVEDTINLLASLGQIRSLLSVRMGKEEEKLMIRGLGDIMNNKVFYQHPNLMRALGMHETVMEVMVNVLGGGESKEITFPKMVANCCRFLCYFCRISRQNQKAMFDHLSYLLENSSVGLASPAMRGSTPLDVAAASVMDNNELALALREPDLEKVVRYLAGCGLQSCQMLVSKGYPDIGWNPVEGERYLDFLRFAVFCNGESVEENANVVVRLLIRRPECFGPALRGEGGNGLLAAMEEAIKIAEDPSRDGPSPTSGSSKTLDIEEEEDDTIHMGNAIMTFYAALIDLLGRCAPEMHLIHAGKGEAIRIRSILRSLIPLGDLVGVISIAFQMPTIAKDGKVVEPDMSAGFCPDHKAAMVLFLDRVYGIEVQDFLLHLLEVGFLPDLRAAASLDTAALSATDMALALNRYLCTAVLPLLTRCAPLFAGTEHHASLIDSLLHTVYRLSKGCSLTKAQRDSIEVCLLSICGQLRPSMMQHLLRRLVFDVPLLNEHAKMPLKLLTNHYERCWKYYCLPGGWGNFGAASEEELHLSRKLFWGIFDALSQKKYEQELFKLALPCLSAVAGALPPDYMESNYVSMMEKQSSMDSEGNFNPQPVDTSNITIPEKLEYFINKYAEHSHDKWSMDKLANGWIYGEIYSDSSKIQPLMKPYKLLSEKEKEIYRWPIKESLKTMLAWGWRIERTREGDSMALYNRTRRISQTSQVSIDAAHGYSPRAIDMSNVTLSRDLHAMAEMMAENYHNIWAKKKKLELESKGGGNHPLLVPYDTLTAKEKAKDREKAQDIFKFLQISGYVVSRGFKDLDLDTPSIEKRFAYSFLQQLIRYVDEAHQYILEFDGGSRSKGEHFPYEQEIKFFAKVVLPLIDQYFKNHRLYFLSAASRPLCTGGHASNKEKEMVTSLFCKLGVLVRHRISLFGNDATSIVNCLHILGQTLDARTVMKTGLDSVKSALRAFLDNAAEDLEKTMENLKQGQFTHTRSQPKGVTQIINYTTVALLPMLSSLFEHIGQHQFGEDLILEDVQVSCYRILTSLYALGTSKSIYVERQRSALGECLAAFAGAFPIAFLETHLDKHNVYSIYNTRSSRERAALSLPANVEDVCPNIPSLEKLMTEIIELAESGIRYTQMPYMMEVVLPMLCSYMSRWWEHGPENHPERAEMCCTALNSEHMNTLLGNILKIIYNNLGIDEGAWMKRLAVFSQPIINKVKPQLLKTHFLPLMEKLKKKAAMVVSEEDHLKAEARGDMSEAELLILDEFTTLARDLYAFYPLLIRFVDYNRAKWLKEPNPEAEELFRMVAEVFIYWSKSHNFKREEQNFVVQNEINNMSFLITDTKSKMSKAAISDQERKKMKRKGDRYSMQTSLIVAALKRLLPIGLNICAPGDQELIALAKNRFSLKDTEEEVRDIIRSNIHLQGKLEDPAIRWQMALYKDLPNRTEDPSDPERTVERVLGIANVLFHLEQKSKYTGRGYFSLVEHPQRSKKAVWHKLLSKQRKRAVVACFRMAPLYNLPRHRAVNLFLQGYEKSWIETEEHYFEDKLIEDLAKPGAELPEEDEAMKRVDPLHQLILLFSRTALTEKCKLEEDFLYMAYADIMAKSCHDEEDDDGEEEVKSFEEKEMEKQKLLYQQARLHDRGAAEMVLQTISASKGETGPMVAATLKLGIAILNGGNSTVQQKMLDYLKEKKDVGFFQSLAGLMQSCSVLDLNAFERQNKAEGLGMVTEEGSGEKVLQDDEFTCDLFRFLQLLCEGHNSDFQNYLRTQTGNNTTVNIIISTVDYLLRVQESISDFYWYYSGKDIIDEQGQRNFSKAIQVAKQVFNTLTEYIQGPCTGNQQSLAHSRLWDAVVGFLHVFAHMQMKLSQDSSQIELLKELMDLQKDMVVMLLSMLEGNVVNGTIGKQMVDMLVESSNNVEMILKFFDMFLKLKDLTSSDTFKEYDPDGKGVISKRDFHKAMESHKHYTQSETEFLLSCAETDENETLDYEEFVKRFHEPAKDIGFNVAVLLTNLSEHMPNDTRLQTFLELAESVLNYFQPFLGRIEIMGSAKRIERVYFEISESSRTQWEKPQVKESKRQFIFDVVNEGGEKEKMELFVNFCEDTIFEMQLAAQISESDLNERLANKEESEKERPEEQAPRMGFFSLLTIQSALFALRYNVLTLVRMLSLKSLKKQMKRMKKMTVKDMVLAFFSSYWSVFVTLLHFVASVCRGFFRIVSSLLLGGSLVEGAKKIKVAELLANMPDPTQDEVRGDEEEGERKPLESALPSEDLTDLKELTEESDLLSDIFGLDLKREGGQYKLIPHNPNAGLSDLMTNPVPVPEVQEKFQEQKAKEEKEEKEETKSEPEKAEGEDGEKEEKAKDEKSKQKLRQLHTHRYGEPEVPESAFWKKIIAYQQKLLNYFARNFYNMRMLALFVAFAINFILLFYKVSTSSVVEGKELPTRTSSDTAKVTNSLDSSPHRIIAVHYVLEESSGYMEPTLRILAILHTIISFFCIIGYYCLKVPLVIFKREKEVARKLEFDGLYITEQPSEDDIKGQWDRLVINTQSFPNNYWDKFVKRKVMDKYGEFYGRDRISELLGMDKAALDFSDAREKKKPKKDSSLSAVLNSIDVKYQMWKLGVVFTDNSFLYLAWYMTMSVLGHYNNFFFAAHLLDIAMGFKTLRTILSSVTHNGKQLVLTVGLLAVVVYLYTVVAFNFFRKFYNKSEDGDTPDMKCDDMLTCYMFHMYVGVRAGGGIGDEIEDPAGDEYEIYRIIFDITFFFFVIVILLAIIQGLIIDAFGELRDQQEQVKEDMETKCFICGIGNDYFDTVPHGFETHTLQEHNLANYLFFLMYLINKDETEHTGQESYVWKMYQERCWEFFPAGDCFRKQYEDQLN

On to `O=C(NCC1CCCCN1)c1cc(OCC(F)(F)F)ccc1OCC(F)(F)F` (stereo not drawn) [flecainide], for which, at RyR2 [1], the “Ca2+ spark frequency” value is reported as “paradoxical increase”, the “Ca2+ spark mass” value is given as “reduces the amount of Ca^2+ released during a spark” and the “Ca2+ spark mediated SR Ca2+ leak” value is recorded as “leak-neutral blocker”. The “effectiveness in suppressing spontaneous Ca2+ waves” value in the series with spontaneous Ca^2+ waves is listed as 30%.

A word on the IC50: it is the concentration needed to halve the response being measured. With `CCCCCC1OC(=O)C(C)N(C)C(=O)C(CCCCC)OC(=O)C(C)N(C)C(=O)C(CCCCC)OC(=O)C(C)N(C)C(=O)C(CCCCC)OC(=O)C(C)N(C)C1=O` (single isomer, unassigned; (-)) [nat-1, (−)-Verticilide], the “Ca2+ spark frequency” value on RyR2 [2] is listed as “no effect”. The “binding to Ca2+ ([Ca2+]free)” value in series [3] was “did not bind to Ca^2+”. Moreover, on RyR1, the “[3H]ryanodine binding (RyR1 activity)” value is “increased”. The “[3H]ryanodine binding (RyR2 activity)” value on RyR2 [4] is listed as “no effect”. The IC50 with insect RyR was 4200 nM.

Consider `CCCCNc1ccc(C(=O)OCCN(C)C)cc1` [tetracaine], for which the “[3H]ryanodine binding (RyR1 activity)” value at RyR1 is “inhibited”. Besides, the “[3H]ryanodine binding (RyR2 activity)” value on RyR2 [4] was “inhibited”. Further, on RyR2 [1], the “Ca2+ spark frequency” value is given as “depresses”, the “Ca2+ spark mass” value is listed as “did not reduce” and the “Ca2+ spark mediated SR Ca2+ leak” value is listed as “only modestly reduces”.

For the compound `CCCCC[C@@H]1OC(=O)[C@@H](C)N(C)C(=O)[C@H](CCCCC)OC(=O)[C@@H](C)N(C)C(=O)[C@H](CCCCC)OC(=O)[C@@H](C)N(C)C(=O)[C@H](CCCCC)OC(=O)[C@@H](C)N(C)C1=O` (single isomer, unassigned) [ent-1, ent-(+)-verticilide], the half-maximal inhibitory concentration (IC50) on RyR2 [4] is approximately 100 nM. Besides, at RyR2 [4] (dose response, cardiac SR), the “maximal inhibition of [3H]ryanodine binding to RyR2” value is “approximately 20%”. Besides, the “ECG PR interval” value in the series on Casq2^−/− mice (index of Ca2+ channel block) is listed as “no significant effect”. Also, the “ECG QRS duration” value in the series on Casq2^−/− mice (index of Na+ channel block) is on record as “no significant effect”.

Values taken from patent US11208435B2, “Verticilide enantiomer and methods of inhibiting cardiac ryanodine receptor-mediated intracellular calcium release” (Vanderbilt University, priority 2017, dated 2021).
